Tested on: Wnt/β-catenin signaling
Assay: TOPFlash reporter assay in 293FT cells
Type: cell-based, human
Conditions: 1 μM 6BIO together with drug at indicated concentrations, 24 hours
Protocol: TOPFlash assay was performed in 96-well plate. For each well, 293T cells were transfected with 0.22 μg TOPFlash (or FOPFlash with mutant TCF binding sites) and 0.02 μg pRL-SV40P using lipofectamine 3000. For co-transfection with other plasmids, 0.1 μg additional DNA was used. […] The luciferase activity was measured 24 hours later by using Dual-Glo® Luciferase Assay System (Promega, E2940) according to the recommended protocol. The TOPFlash or FOPFlash activity was normalized to Renilla luciferase signals.
TOPFlash assay was performed as described above. Briefly, for each well of a 96-well plate 293FT cells were transfected with 0.22 μg TOPFlash (or FOPFlash with mutant TCF binding sites) and 0.02 μg pRL-SV40P using lipofectamine 3000. For co-transfection with other plasmids, 0.1 μg additional DNA was used. Four hours after transfection, 293FT cells were treated with DMSO, 1 μM 6B10 and 1 μM 6B10 together with pazopanib, orlistat and topotecan at varying concentrations for 24 hours. The luciferase activity was then measured using Dual-Glo® Luciferase Assay System (Promega, E2940) according to the recommended protocol. The TOPFlash or FOPFlash activity was normalized to Renilla luciferase signals.

CNC(=O)c1ccccc1Sc1ccc2c(/C=C/c3ccccn3)n[nH]c2c1 [axitinib, N-Methyl-2-[[3-[(E)-2-pyridin-2-ylethenyl]-1H-indazol-6-yl]sulfanyl]benzamide]
TOPFlash activity normalized to Renilla luciferase activity: dose dependently inhibits

Reference: patent publication US20180344715A1, “WNT/BETA-CATENIN SIGNAL TRANSDUCTION INHIBITORS AND THEIR USE IN TREATMENT OR PREVENTION OF DISEASES AND CONDITIONS LINKED WITH SAID TRANSDUCTION” (BERGEN TEKNOLOGIOVERFORING AS, priority 2015, published 2018)
